Laboratory results: the supplement of paper PMC5908809

Assays:
[1] = system: normal NK cells expanded with K562-aAPC; experiment: percent inhibition of viability; higher = more inhibition; details: 72 h, IL-2 2.5 ng/mL
Protocol: (§1)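 Drug sensitivity and resistance testing on K562-aAPC-expanded normal NK cells: 5 concentrations (10-fold steps over a 10,000-fold range), 72 h at 37 °C, viability by CellTiter-Glo normalised to DMSO and benzethonium chloride controls; DSS from the fitted curve.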

[2] = system: normal NK cells expanded with K562-aAPC; experiment: drug sensitivity score (DSS) (DSS units); higher = more sensitive; extreme values may be limits of the assay; details: 72 h; IL-2 2.5 ng/mL
Protocol: as §1

[3] = system: normal primary NK cells, pool 1 (3 donors) (IL-2 2.5 ng/mL); experiment: percent inhibition of viability; higher = more inhibition; details: 72 h
YT (IL-2 2.5 ng/mL) [4] = experiment: as above; details: 72 h
KAI3 (IL-2 2.5 ng/mL) [5] = experiment: as above; details: 72 h
IMC-1 (IL-2 20 ng/mL) [6] = experiment: as above; details: 72 h
[7] = system: normal primary NK cells, pool 3 (3 donors) (IL-2 2.5 ng/mL); experiment: as above; details: 72 h
KHYG-1 (IL-2 2.5 ng/mL) [8] = experiment: as above; details: 72 h
NKL (IL-2 2.5 ng/mL) [9] = experiment: as above; details: 72 h
[10] = system: normal primary NK cells, pool 2 (3 donors) (IL-2 2.5 ng/mL); experiment: as above; details: 72 h
NK-YS (IL-2 2.5 ng/mL) [11] = experiment: as above; details: 72 h
SNK-6 (IL-2 2.5 ng/mL) [12] = experiment: as above; details: 72 h
[13] = system: normal primary NK cells, pool 1 (3 donors), resting (IL-2 0 ng/mL); experiment: as above; details: 72 h
NK-92 (IL-2 2.5 ng/mL) [14] = experiment: as above; details: 72 h
DERL-7 (IL-2 2.5 ng/mL) [15] = experiment: as above; details: 72 h
[16] = system: normal primary NK cells, pool 1 (3 donors) (IL-2 2.5 ng/mL); experiment: drug sensitivity score (DSS) (DSS units); higher = more sensitive; extreme values may be limits of the assay; details: 72 h
YT (IL-2 2.5 ng/mL) [17] = experiment: as above; details: 72 h
KAI3 (IL-2 2.5 ng/mL) [18] = experiment: as above; details: 72 h
IMC-1 (IL-2 20 ng/mL) [19] = experiment: as above; details: 72 h
[20] = system: normal primary NK cells, pool 3 (3 donors) (IL-2 2.5 ng/mL); experiment: as above; details: 72 h
KHYG-1 (IL-2 2.5 ng/mL) [21] = experiment: as above; details: 72 h
NKL (IL-2 2.5 ng/mL) [22] = experiment: as above; details: 72 h
[23] = system: normal primary NK cells, pool 2 (3 donors) (IL-2 2.5 ng/mL); experiment: as above; details: 72 h
NK-YS (IL-2 2.5 ng/mL) [24] = experiment: as above; details: 72 h
SNK-6 (IL-2 2.5 ng/mL) [25] = experiment: as above; details: 72 h
[26] = system: normal primary NK cells, pool 1 (3 donors), resting (IL-2 0 ng/mL); experiment: as above; details: 72 h
NK-92 (IL-2 2.5 ng/mL) [27] = experiment: as above; details: 72 h
DERL-7 (IL-2 2.5 ng/mL) [28] = experiment: as above; details: 72 h

CS(=O)(=O)N1CCN(Cc2cc3nc(-c4cccc5[nH]ncc45)nc(N4CCOCC4)c3s2)CC1 [Pictilisib] (max concentration tested 10000 nM)
percent inhibition of viability [%]
Details | 1 nM | 10 nM | 100 nM | 1000 nM | 10000 nM
DERL-7 (IL-2 2.5 ng/mL) [15] | 0.8 | 4.11 | 16.1 | 57.5 | 87.1
IMC-1 (IL-2 20 ng/mL) [6] | -6.08 | -5.88 | -14.1 | -27.2 | -37
KAI3 (IL-2 2.5 ng/mL) [5] | -6.58 | 2.21 | 8.79 | 17.4 | 52.6
KHYG-1 (IL-2 2.5 ng/mL) [8] | -3.48 | -3.66 | -5.51 | 9.17 | 62.5
NK-92 (IL-2 2.5 ng/mL) [14] | 4.34 | 0.31 | 30.3 | 36.6 | 73.9
NK-YS (IL-2 2.5 ng/mL) [11] | 0.04 | 3.57 | 4.67 | 27.4 | 64.3
NKL (IL-2 2.5 ng/mL) [9] | -16 | -14.4 | -0.35 | 45.4 | 73.1
SNK-6 (IL-2 2.5 ng/mL) [12] | 9.42 | 16.7 | -3.54 | 3.83 | 42
YT (IL-2 2.5 ng/mL) [4] | -3.11 | -1.03 | 5.07 | 24.7 | 62
[1] | 2.02 | 0.78 | 10.8 | 25.4 | 51.1
[3] | -12 | -5.63 | 1.66 | 32.2 | 72.9
[7] | -9.78 | -13.3 | -0.72 | 3.18 | 37.3
[10] | -12.1 | 3.86 | 0.41 | 8.6 | 55.1
[13] | -0.3 | -14.8 | 0.53 | 45.2 | 63.4

Details | drug sensitivity score
DERL-7 (IL-2 2.5 ng/mL) [28] | 12.9
IMC-1 (IL-2 20 ng/mL) [19] | 0
KAI3 (IL-2 2.5 ng/mL) [18] | 4.66
KHYG-1 (IL-2 2.5 ng/mL) [21] | 4.95
NK-92 (IL-2 2.5 ng/mL) [27] | 11
NK-YS (IL-2 2.5 ng/mL) [24] | 6.66
NKL (IL-2 2.5 ng/mL) [22] | 9.46
SNK-6 (IL-2 2.5 ng/mL) [25] | 2.73
YT (IL-2 2.5 ng/mL) [17] | 6.22
[2] | 5.88
[16] | 8.06
[20] | 2.3
[23] | 4.41
[26] | 8.8

Cn1c(CCCC(=O)O)nc2cc(N(CCCl)CCCl)ccc21 [Bendamustine] (max concentration tested 10000 nM)
percent inhibition of viability [%]
Details | 1 nM | 10 nM | 100 nM | 1000 nM | 10000 nM
DERL-7 (IL-2 2.5 ng/mL) [15] | 2.35 | -0.75 | -0.87 | -0.14 | 8.22
IMC-1 (IL-2 20 ng/mL) [6] | -5.16 | -3.14 | 0.53 | 1.92 | 25.3
KAI3 (IL-2 2.5 ng/mL) [5] | -0.41 | 1.91 | 1.35 | -4.7 | 30.8
KHYG-1 (IL-2 2.5 ng/mL) [8] | -5.91 | 1.42 | 10.1 | 2.21 | 17.1
NK-92 (IL-2 2.5 ng/mL) [14] | -10.3 | -2.08 | 7.9 | -10.7 | 24.9
NK-YS (IL-2 2.5 ng/mL) [11] | -10.9 | -2.18 | 8.61 | 4.45 | 63.6
NKL (IL-2 2.5 ng/mL) [9] | -5.33 | -10.8 | 5.76 | 27.8 | 88.6
SNK-6 (IL-2 2.5 ng/mL) [12] | -1.78 | -2.24 | 14.2 | 17.1 | 67
YT (IL-2 2.5 ng/mL) [4] | -6.57 | -3.19 | 7.12 | -0.08 | 0
[1] | 3.13 | 1.48 | -1.08 | 12.2 | 42.8
[3] | -9.6 | -0.97 | -3.62 | -12.8 | 60.6
[7] | -2.58 | 1.8 | 5.19 | 5.5 | 54.3
[10] | -6.1 | -4.8 | 1.7 | 1.54 | 54.5
[13] | -1.75 | 6.06 | -6.12 | -12.6 | 88.2

Details | drug sensitivity score
DERL-7 (IL-2 2.5 ng/mL) [28] | 0
IMC-1 (IL-2 20 ng/mL) [19] | 1.24
KAI3 (IL-2 2.5 ng/mL) [18] | 1.09
KHYG-1 (IL-2 2.5 ng/mL) [21] | 0.29
NK-92 (IL-2 2.5 ng/mL) [27] | 0.59
NK-YS (IL-2 2.5 ng/mL) [24] | 4.15
NKL (IL-2 2.5 ng/mL) [22] | 8.66
SNK-6 (IL-2 2.5 ng/mL) [25] | 5.85
YT (IL-2 2.5 ng/mL) [17] | 0
[2] | 4.02
[16] | 2.59
[20] | 3.81
[23] | 3.11
[26] | 4.14
